# Source: patent publication US11274090B2, “P300/CBP HAT inhibitors” (Constellation Pharmaceuticals, Inc., priority 2018, dated 2022)
# Target: p300 HAT domain (residues 1287-1666) (Homo sapiens (Human), UniProt Q09472)
# Experiment: p300 HAT SPA assay (scintillation proximity assay, acetylation of biotinylated H3(1-21) peptide)
# Assay type: biochemical
# Conditions: average of at least 2 replicate titrations
# Procedure: In a typical experiment the p300 HAT inhibitory activity of the compounds described herein was determined in accordance with the following experimental method.
# The expressed protein was purified by Ni2+ affinity, followed by anion exchange chromatography. Appropriate fractions were pooled and buffer exchanged into 20 mM Hepes pH 7.5, 150 mM NaCl, and 1 mM TCEP.
# 35 μL of the reaction volume was transferred to a 384-well streptavidin FlashPlate (PerkinElmer) using a Bravo liquid handler (Velocity 11) and incubated for 1.5 hr at RT. […] Data were analyzed in Genedata to determine inhibitor IC50 values.
# p300 HAT domain (residues 1287-1666), sequence (Q09472 1287-1666): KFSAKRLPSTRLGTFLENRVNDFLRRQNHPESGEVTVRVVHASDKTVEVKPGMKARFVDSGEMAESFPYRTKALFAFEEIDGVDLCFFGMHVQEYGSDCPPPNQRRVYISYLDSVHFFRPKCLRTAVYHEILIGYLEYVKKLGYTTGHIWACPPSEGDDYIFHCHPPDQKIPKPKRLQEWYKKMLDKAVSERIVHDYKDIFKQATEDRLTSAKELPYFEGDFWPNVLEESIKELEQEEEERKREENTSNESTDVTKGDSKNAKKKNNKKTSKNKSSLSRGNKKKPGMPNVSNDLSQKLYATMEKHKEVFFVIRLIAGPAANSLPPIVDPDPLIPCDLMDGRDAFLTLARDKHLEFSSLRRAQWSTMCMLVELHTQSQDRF
row,IC50 [nM],SMILES
1,> 2000,"Cn1cc(-c2ccc(NC(=O)C(NCCc3ccc(C#N)cc3)c3ccc(Cl)cc3)nc2)cn1 (single isomer, unassigned) [67 Isomer 1]"
2,216,"Cn1cc(-c2ccc(NC(=O)C(NCCc3ccc(C#N)cc3)c3ccc(Cl)cc3)nc2)cn1 (single isomer, unassigned) [67 Isomer 2]"
3,> 2000,"CS(=O)(=O)N1CCN(c2ccc(NC(=O)C(NCCc3ccc(C#N)cc3)c3ccccc3)nc2)CC1 (single isomer, unassigned) [68 Isomer 1]"
4,35.8,"CN1CCN(c2ccc(NC(=O)C(NCCc3ccc(Cl)cc3)c3ccccc3)nc2)CC1 (single isomer, unassigned) [69 Isomer 1]"
5,> 2000,"CN1CCN(c2ccc(NC(=O)C(NCCc3ccc(Cl)cc3)c3ccccc3)nc2)CC1 (single isomer, unassigned) [69 Isomer 2]"
6,> 2000,"COc1cccc(C(NCCc2ccc(C#N)cc2)C(=O)Nc2ccc(-c3cnn(C)c3)cn2)c1 (single isomer, unassigned) [70 Isomer 1]"
7,243,"COc1cccc(C(NCCc2ccc(C#N)cc2)C(=O)Nc2ccc(-c3cnn(C)c3)cn2)c1 (single isomer, unassigned) [70 Isomer 2]"
8,86.9,"CN1CCN(c2ccc(NC(=O)C(NCCc3ccc(C#N)cc3)c3ccccc3)nc2)CCC1=O (single isomer, unassigned) [71 Isomer 1]"
9,> 2000,"CN1CCN(c2ccc(NC(=O)C(NCCc3ccc(C#N)cc3)c3ccccc3)nc2)CCC1=O (single isomer, unassigned) [71 Isomer 2]"
10,> 2000,"Cc1ncn(-c2ccc(NC(=O)C(NCCc3ccc(C#N)cc3)c3ccccc3)nc2)n1 (single isomer, unassigned) [73 Isomer 1]"
11,197,"Cc1ncn(-c2ccc(NC(=O)C(NCCc3ccc(C#N)cc3)c3ccccc3)nc2)n1 (single isomer, unassigned) [73 Isomer 2]"
12,88,"CCN1CCN(c2ccc(NC(=O)C(NCCc3ccc(C#N)cc3)c3ccccc3)nc2)C1=O (single isomer, unassigned) [76 Isomer 1]"
13,> 2000,"CCN1CCN(c2ccc(NC(=O)C(NCCc3ccc(C#N)cc3)c3ccccc3)nc2)C1=O (single isomer, unassigned) [76 Isomer 2]"
14,39.4,"N#Cc1ccc(CCNC(C(=O)Nc2ccc(N3CCC(F)(F)C3)cn2)c2ccccc2)cc1 (single isomer, unassigned) [77 Isomer 1]"
15,1980,"N#Cc1ccc(CCNC(C(=O)Nc2ccc(N3CCC(F)(F)C3)cn2)c2ccccc2)cc1 (single isomer, unassigned) [77 Isomer 2]"
16,296,"Cc1cn(-c2ccc(NC(=O)C(NCCc3ccc(C#N)cc3)c3ccccc3)nc2)nn1 (single isomer, unassigned) [78 Isomer 1]"
17,> 2000,"Cc1cn(-c2ccc(NC(=O)C(NCCc3ccc(C#N)cc3)c3ccccc3)nc2)nn1 (single isomer, unassigned) [78 Isomer 2]"
18,> 2000,"Cn1cc(-c2ccc(NC(=O)C(NCCc3ccc(C#N)cc3)c3cccc(Cl)c3)nc2)cn1 (single isomer, unassigned) [79 Isomer 1]"
19,97.7,"Cn1cc(-c2ccc(NC(=O)C(NCCc3ccc(C#N)cc3)c3cccc(Cl)c3)nc2)cn1 (single isomer, unassigned) [79 Isomer 2]"

row,IC50 [nM],SMILES
1,201,"N#Cc1ccc(CCNC(C(=O)Nc2ccc(N3CC4(COC4)C3)cn2)c2ccccc2)cc1 (single isomer, unassigned) [80 Isomer 1]"
2,> 2000,"N#Cc1ccc(CCNC(C(=O)Nc2ccc(N3CC4(COC4)C3)cn2)c2ccccc2)cc1 (single isomer, unassigned) [80 Isomer 2]"
3,139,"N#Cc1ccc(CCNC(C(=O)Nc2ccc(N3CCOCC3)cn2)c2ccccc2)cc1 (single isomer, unassigned) [81 Isomer 1]"
4,> 2000,"N#Cc1ccc(CCNC(C(=O)Nc2ccc(N3CCOCC3)cn2)c2ccccc2)cc1 (single isomer, unassigned) [81 Isomer 2]"
5,> 5000,"CC(CNC(C(=O)Nc1ccc(-c2cnn(C)c2)cc1)c1ccccc1)c1ccc(C#N)cc1 (single isomer, unassigned) [82 Isomer 1]"
6,> 5000,"CC(CNC(C(=O)Nc1ccc(-c2cnn(C)c2)cc1)c1ccccc1)c1ccc(C#N)cc1 (single isomer, unassigned) [82 Isomer 2]"
7,604,"CC(CNC(C(=O)Nc1ccc(-c2cnn(C)c2)cc1)c1ccccc1)c1ccc(C#N)cc1 (single isomer, unassigned) [82 Isomer 3]"
8,> 2000,"CC(CNC(C(=O)Nc1ccc(-c2cnn(CC(F)(F)F)c2)cn1)c1ccccc1)c1ccc(C#N)cc1 (single isomer, unassigned) [83 Isomer 1]"
9,> 2000,"CC(CNC(C(=O)Nc1ccc(-c2cnn(CC(F)(F)F)c2)cn1)c1ccccc1)c1ccc(C#N)cc1 (single isomer, unassigned) [83 Isomer 2]"
10,503,"CC(CNC(C(=O)Nc1ccc(-c2cnn(CC(F)(F)F)c2)cn1)c1ccccc1)c1ccc(C#N)cc1 (single isomer, unassigned) [83 Isomer 3]"
11,20.6,"CC(CNC(C(=O)Nc1ccc(-c2cnn(CC(F)(F)F)c2)cn1)c1ccccc1)c1ccc(C#N)cc1 (single isomer, unassigned) [83 Isomer 4]"
12,395,"C[C@H](CNC(C(=O)Nc1ccc(-c2cnn(CC(=O)N(C)C)c2)cn1)c1ccccc1)c1ccc(C#N)cc1 (single isomer, unassigned) [84 Isomer 1]"
13,31.9,"Cn1cc(-c2ccc(NC(=O)C(NCCc3ccc(C#N)c(F)c3)c3ccccc3)nc2)cn1 (single isomer, unassigned) [85 Isomer 1]"
14,470,"Cn1cc(-c2ccc(NC(=O)C(NCCc3ccc(C#N)c(F)c3)c3ccccc3)nc2)cn1 (single isomer, unassigned) [85 Isomer 2]"
15,264,"COc1ccccc1C(NCCc1ccc(C#N)cc1)C(=O)Nc1ccc(-c2cnn(C)c2)cn1 (single isomer, unassigned) [87 Isomer 1]"
16,> 2000,"COc1ccccc1C(NCCc1ccc(C#N)cc1)C(=O)Nc1ccc(-c2cnn(C)c2)cn1 (single isomer, unassigned) [87 Isomer 2]"
17,65.4,"Cn1cc(-c2ccc(NC(=O)C(NCCc3ccc(C#N)cc3)c3ccccc3Cl)nc2)cn1 (single isomer, unassigned) [88 Isomer 1]"
18,> 2000,"Cn1cc(-c2ccc(NC(=O)C(NCCc3ccc(C#N)cc3)c3ccccc3Cl)nc2)cn1 (single isomer, unassigned) [88 Isomer 2]"
19,> 2000,"Cn1cc(-c2ccc(NC(=O)C(NCCc3ccc(C#N)cc3)C3CCCCC3)nc2)cn1 (single isomer, unassigned) [89 Isomer 1]"

row,IC50 [nM],SMILES
1,1430,"Cn1cc(-c2ccc(NC(=O)C(NCCc3ccc(C#N)cc3)C3CCCCC3)nc2)cn1 (single isomer, unassigned) [89 Isomer 2]"
2,210,"CC(CNC(C(=O)Nc1ccc(-c2cnn(C)c2)cn1)c1ccccc1)c1ccc(C#N)cc1F (single isomer, unassigned) [90 Isomer 1]"
3,1600,"CC(CNC(C(=O)Nc1ccc(-c2cnn(C)c2)cn1)c1ccccc1)c1ccc(C#N)cc1F (single isomer, unassigned) [90 Isomer 3]"
4,> 2000,"CC(CNC(C(=O)Nc1ccc(-c2cnn(C)c2)cn1)c1ccccc1)c1ccc(C#N)cc1F (single isomer, unassigned) [90 Isomer 4]"
5,473,"CC(CNC(C(=O)Nc1ccc(-c2cnn(C)c2)cn1)c1ccccc1)c1ccc(C#N)c(F)c1 (single isomer, unassigned) [91 Isomer 1]"
6,1020,"CC(CNC(C(=O)Nc1ccc(-c2cnn(C)c2)cn1)c1ccccc1)c1ccc(C#N)c(F)c1 (single isomer, unassigned) [91 Isomer 3]"
7,401,"CC(CNC(C(=O)Nc1ccc(-c2cnn(C)c2)cn1)c1ccccc1)c1ccc(C#N)c(F)c1 (single isomer, unassigned) [91 Isomer 4]"
8,881,"CO[C@@H]1CCN(c2ccc(NC(=O)C(NCC(C)c3ccc(C#N)cc3)c3ccccc3)nc2)C1 (single isomer, unassigned) [92 Isomer 1]"
9,11.5,"CO[C@@H]1CCN(c2ccc(NC(=O)C(NCC(C)c3ccc(C#N)cc3)c3ccccc3)nc2)C1 (single isomer, unassigned) [92 Isomer 2]"
10,599,"CO[C@@H]1CCN(c2ccc(NC(=O)C(NCC(C)c3ccc(C#N)cc3)c3ccccc3)nc2)C1 (single isomer, unassigned) [92 Isomer 3]"
11,> 2000,"CO[C@@H]1CCN(c2ccc(NC(=O)C(NCC(C)c3ccc(C#N)cc3)c3ccccc3)nc2)C1 (single isomer, unassigned) [92 Isomer 4]"
12,412,"CO[C@H]1CCN(c2ccc(NC(=O)C(NCC(C)c3ccc(C#N)cc3)c3ccccc3)nc2)C1 (single isomer, unassigned) [93 Isomer 1]"
13,> 2000,"CO[C@H]1CCN(c2ccc(NC(=O)C(NCC(C)c3ccc(C#N)cc3)c3ccccc3)nc2)C1 (single isomer, unassigned) [93 Isomer 2]"
14,36,"CO[C@H]1CCN(c2ccc(NC(=O)C(NCC(C)c3ccc(C#N)cc3)c3ccccc3)nc2)C1 (single isomer, unassigned) [93 Isomer 3]"
15,> 2000,"CO[C@H]1CCN(c2ccc(NC(=O)C(NCC(C)c3ccc(C#N)cc3)c3ccccc3)nc2)C1 (single isomer, unassigned) [93 Isomer 4]"
16,85.1,"Cn1cc(-c2ccc(NC(=O)C(NCCc3ccc(Cl)cc3C#N)c3ccccc3)nc2)cn1 (single isomer, unassigned) [94 Isomer 1]"
17,> 2000,"Cn1cc(-c2ccc(NC(=O)C(NCCc3ccc(Cl)cc3C#N)c3ccccc3)nc2)cn1 (single isomer, unassigned) [94 Isomer 2]"
18,41.4,"Cn1cc(-c2ccc(NC(=O)C(NCCc3ccc(C#N)cc3C(F)(F)F)c3ccccc3)nc2)cn1 (single isomer, unassigned) [95 Isomer 1]"
